Experimental data reported in patent US9765092B2, “Tricyclic piperidine compounds” (ACTELION PHARMACEUTICALS LTD, priority 2013, dated 2017).

Molecular target: human TPH1 (Homo sapiens (Human), UniProt P17752)
Test: Biochemical in vitro assay using fluorescence readout (TPH1 inhibition)
Settings: human TPH1, fluorescence readout

Sequence of human TPH1 (P17752 whole entry): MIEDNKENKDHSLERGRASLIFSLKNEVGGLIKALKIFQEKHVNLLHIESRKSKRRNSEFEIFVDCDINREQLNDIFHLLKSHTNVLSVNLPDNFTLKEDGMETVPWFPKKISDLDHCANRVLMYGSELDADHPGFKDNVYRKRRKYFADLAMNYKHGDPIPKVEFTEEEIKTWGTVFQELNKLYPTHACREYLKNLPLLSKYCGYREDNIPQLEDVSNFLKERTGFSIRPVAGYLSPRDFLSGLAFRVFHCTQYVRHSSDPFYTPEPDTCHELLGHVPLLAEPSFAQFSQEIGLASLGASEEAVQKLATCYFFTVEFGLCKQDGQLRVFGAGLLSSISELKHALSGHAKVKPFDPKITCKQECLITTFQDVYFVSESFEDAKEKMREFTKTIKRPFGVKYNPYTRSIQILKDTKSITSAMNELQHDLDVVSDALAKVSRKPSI

CCc1nc(NS(C)(=O)=O)ccc1OCC(=O)N1CCc2nc3sc(C(F)(F)F)nn3c2C1c1ccc(C)cc1F (centres unmarked) [Example 5.3.1, N-(6-ethyl-5-(2-(5-(2-fluoro-4-methylphenyl)-2-(trifluoromethyl)-7,8-dihydro-[1,3,4]thiadiazolo[2′,3′:2,3]imidazo[4,5-c]pyridin-6(5H)-yl)-2-oxoethoxy)pyridin-2-yl)methanesulfonamide]
IC50: 0.028 µM

CCc1nc(N2CCCS2(=O)=O)ccc1OCC(=O)N1CCc2nc3sc(C(F)(F)F)nn3c2C1c1sc(C)nc1C (centres unmarked) [Example 5.4.1, 1-(5-(2,4-dimethylthiazol-5-yl)-2-(trifluoromethyl)-7,8-dihydro-[1,3,4]thiadiazolo[2′,3′:2,3]imidazo[4,5-c]pyridin-6(5H)-yl)-2-((6-(1,1-dioxidoisothiazolidin-2-yl)-2-ethylpyridin-3-yl)oxy)ethanone]
IC50: 0.025 µM

CCc1nc(NS(C)(=O)=O)ccc1OCC(=O)N1CCc2nc3sc(C(F)(F)F)nn3c2C1c1sc(C)nc1C (centres unmarked) [Example 5.4.2, N-(5-(2-(5-(2,4-dimethylthiazol-5-yl)-2-(trifluoromethyl)-7,8-dihydro-[1,3,4]thiadiazolo[2′,3′:2,3]imidazo[4,5-c]pyridin-6(5H)-yl)-2-oxoethoxy)-6-ethylpyridin-2-yl)methanesulfonamide]
IC50: 0.027 µM

COc1ccc(C2c3c(nc4sccn34)CCN2C(=O)COc2ccc3ccccc3c2)cc1OC (centres unmarked) [Example 6.1.1, 1-(5-(3,4-dimethoxyphenyl)-7,8-dihydrothiazolo-[2′,3′:2,3]imidazo[4,5-c]pyridin-6(5H)-yl)-2-(naphthalen-2-yloxy)ethanone]
IC50: 0.004 µM

COc1ccc(C2c3c(nc4sccn34)CCN2C(=O)COc2ccc(CN3CCOCC3)cc2Cl)cc1OC (centres unmarked) [Example 6.1.2, 2-(2-chloro-4-(morpholinomethyl)phenoxy)-1-(5-(3,4-dimethoxyphenyl)-7,8-dihydrothiazolo[2′,3′:2,3]-imidazo[4,5-c]pyridin-6(5H)-yl)ethanone]
IC50: 0.005 µM

COc1ccc(C2c3c(nc4sccn34)CCN2C(=O)COc2ccc(Cl)cc2Cl)cc1OC (centres unmarked) [Example 6.1.3, 2-(2,4-dichlorophenoxy)-1-(5-(3,4-dimethoxyphenyl)-7,8-dihydrothiazolo[2′,3′:2,3]imidazo[4,5-c]pyridin-6(5H)-yl)ethanone]
IC50: 0.007 µM

O=C(COc1ccc(CN2CCOCC2)cc1Cl)N1CCc2nc3sccn3c2C1c1cccnc1F (centres unmarked) [Example 6.2.1, 2-(2-chloro-4-(morpholinomethyl)phenoxy)-1-(5-(2-fluoropyridin-3-yl)-7,8-dihydrothiazolo[2′,3′:2,3]imidazo[4,5-c]pyridin-6(5H)-yl)ethanone]
IC50: 0.012 µM

O=C(COc1ccccc1C(F)(F)F)N1CCc2nc3sccn3c2C1c1cccnc1F (centres unmarked) [Example 6.2.2, 1-(5-(2-fluoropyridin-3-yl)-7,8-dihydrothiazolo[2′,3′:2,3]-imidazo[4,5-c]pyridin-6(5H)-yl)-2-(2-(trifluoromethyl)-phenoxy)ethanone]
IC50: 0.081 µM

Cc1ccc(OCC(=O)N2CCc3nc4sccn4c3C2c2cccnc2F)cc1 (centres unmarked) [Example 6.2.3, 1-(5-(2-fluoropyridin-3-yl)-7,8-dihydrothiazolo[2′,3′:2,3]-imidazo[4,5-c]pyridin-6(5H)-yl)-2-(p-tolyloxy)ethanone]
IC50: 0.052 µM

Cc1ccccc1OCC(=O)N1CCc2nc3sccn3c2C1c1cccnc1F (centres unmarked) [Example 6.2.4, 1-(5-(2-fluoropyridin-3-yl)-7,8-dihydrothiazolo[2′,3′:2,3]-imidazo[4,5-c]pyridin-6(5H)-yl)-2-(o-tolyloxy)ethanone]
IC50: 0.266 µM

Cc1cc(Cl)ccc1OCC(=O)N1CCc2nc3sccn3c2C1c1cccnc1F (centres unmarked) [Example 6.2.5, 2-(4-chloro-2-methylphenoxy)-1-(5-(2-fluoropyridin-3-yl)-7,8-dihydrothiazolo[2′,3′:2,3]imidazo[4,5-c]pyridin-6(5H)-yl)ethanone]
IC50: 0.026 µM

Cn1nc(OCC(=O)N2CCc3nc4sccn4c3C2c2cccnc2F)c(C(F)(F)F)c1Cl (centres unmarked) [Example 6.2.6, 2-((5-chloro-1-methyl-4-(trifluoromethyl)-1H-pyrazol-3-yl)oxy)-1-(5-(2-fluoropyridin-3-yl)-7,8-dihydrothiazolo[2′,3′:2,3]imidazo[4,5-c]pyridin-6(5H)-yl)ethanone]
IC50: 0.419 µM

O=C(COc1ccc(CN2CCOCC2)nc1Cl)N1CCc2nc3sccn3c2C1c1cccnc1F (centres unmarked) [Example 6.2.7, ((2-chloro-6-(morpholinomethyl)pyridin-3-yl)oxy)-1-(5-(2-fluoropyridin-3-yl)-7,8-dihydrothiazolo[2′,3′:2,3]-imidazo[4,5-c]pyridin-6(5H)-yl)ethanone]
IC50: 0.235 µM

COc1ccc(C2c3c(nc4sccn34)CCN2C(=O)COc2ccc(CN3CCOCC3)cc2Cl)c(F)c1 (centres unmarked) [Example 6.3.1, 2-(2-chloro-4-(morpholinomethyl)phenoxy)-1-(5-(2-fluoro-4-methoxyphenyl)-7,8-dihydrothiazolo[2′,3′:2,3]-imidazo[4,5-c]pyridin-6(5H)-yl)ethanone]
IC50: 0.005 µM

COc1ccc(C2c3c(nc4sccn34)CCN2C(=O)COc2ccc(CN3CCOCC3)nc2Cl)c(F)c1 (centres unmarked) [Example 6.3.2, 2-((2-chloro-6-(morpholinomethyl)pyridin-3-yl)oxy)-1-(5-(2-fluoro-4-methoxyphenyl)-7,8-dihydrothiazolo-[2′,3′:2,3]imidazo[4,5-c]pyridin-6(5H)-yl)ethanone]
IC50: 0.009 µM

COc1ccc(C2c3c(nc4sccn34)CCN2C(=O)COc2ccc3ccncc3c2)c(F)c1 (centres unmarked) [Example 6.3.3, 1-(5-(2-fluoro-4-methoxyphenyl)-7,8-dihydrothiazolo[2′,3′:2,3]imidazo[4,5-c]pyridin-6(5H)-yl)-2-(isoquinolin-7-yloxy)ethanone]
IC50: 0.004 µM

CCc1cc(F)ccc1OCC(=O)N1CCc2nc3sccn3c2C1c1ccc(OC)cc1F (centres unmarked) [Example 6.3.4, 2-(2-ethyl-4-fluorophenoxy)-1-(5-(2-fluoro-4-methoxyphenyl)-7,8-dihydrothiazolo[2′,3′:2,3]-imidazo[4,5-c]pyridin-6(5H)-yl)ethanone]
IC50: 0.008 µM

O=C(COc1ccc(N2CCOCC2)cc1Cl)N1CC=C2N=C3SC=CN3C2[C@H]1c1ccc(Cl)cc1F (stereo partly drawn) [Example 6.4.2, 1-((5R)-5-(4-chloro-2-fluorophenyl)-4a,5-dihydro-thiazolo[2′,3′:2,3]imidazo[4,5-c]pyridin-6(7H)-yl)-2-(2-chloro-4-morpholinophenoxy)ethanone]
IC50: 0.004 µM

Cc1cc(Cl)ccc1OCC(=O)N1CCc2nc3sccn3c2C1c1ccc(Cl)cc1F (centres unmarked) [Example 6.4.3, 1-(5-(4-chloro-2-fluorophenyl)-7,8-dihydrothiazolo-[2′,3′:2,3]imidazo[4,5-c]pyridin-6(5H)-yl)-2-(4-chloro-2-methylphenoxy)ethanone]
IC50: 0.006 µM

O=C(COc1cccnc1Cl)N1CCc2nc3sccn3c2C1c1ccc(Cl)cc1F (centres unmarked) [Example 6.4.4, 1-(5-(4-chloro-2-fluorophenyl)-7,8-dihydrothiazolo-[2′,3′:2,3]imidazo[4,5-c]pyridin-6(5H)-yl)-2-((2-chloropyridin-3-yl)oxy)ethanone]
IC50: 0.013 µM

O=C(COc1ccc(CN2CCOCC2)nc1Cl)N1CCc2nc3sccn3c2C1c1ccc(Cl)cc1F (centres unmarked) [Example 6.4.5, 1-(5-(4-chloro-2-fluorophenyl)-7,8-dihydrothiazolo-[2′,3′:2,3]imidazo[4,5-c]pyridin-6(5H)-yl)-2-((2-chloro-6-(morpholinomethyl)pyridin-3-yl)oxy)ethanone]
IC50: 0.007 µM

CCc1ncccc1OCC(=O)N1CCc2nc3sccn3c2C1c1ccc(Cl)cc1F (centres unmarked) [Example 6.4.7, 1-(5-(4-chloro-2-fluorophenyl)-7,8-dihydrothiazolo-[2′,3′:2,3]imidazo[4,5-c]pyridin-6(5H)-yl)-2-((2-ethylpyridin-3-yl)oxy)ethanone]
IC50: 0.006 µM

CS(=O)(=O)Nc1ccc(OCC(=O)N2CCc3nc4sccn4c3C2c2ccc(Cl)cc2F)c(Cl)n1 (centres unmarked) [Example 6.4.8, N-(6-chloro-5-(2-(5-(4-chloro-2-fluorophenyl)-7,8-dihydrothiazolo[2′,3′:2,3]imidazo[4,5-c]pyridin-6(5H)-yl)-2-oxoethoxy)pyridin-2-yl)methanesulfonamide]
IC50: 0.003 µM

CCc1nc(C)ccc1OCC(=O)N1CCc2nc3sccn3c2C1c1c(C)noc1C (centres unmarked) [Example 6.5.1, 1-(5-(3,5-dimethylisoxazol-4-yl)-7,8-dihydrothiazolo-[2′,3′:2,3]imidazo[4,5-c]pyridin-6(5H)-yl)-2-((2-ethyl-6-methylpyridin-3-yl)oxy)ethanone]
IC50: 0.117 µM

Cc1noc(C)c1C1c2c(nc3sccn23)CCN1C(=O)COc1ccc(Cl)cc1Cl (centres unmarked) [Example 6.5.2, 2-(2,4-dichlorophenoxy)-1-(5-(3,5-dimethylisoxazol-4-yl)-7,8-dihydrothiazolo[2′,3′:2,3]imidazo[4,5-c]pyridin-6(5H)-yl)ethanone]
IC50: 0.061 µM

Cc1noc(C)c1C1c2c(nc3sccn23)CCN1C(=O)COc1ccc(C(F)(F)F)cc1Cl (centres unmarked) [Example 6.5.3, 2-(2-chloro-4-(trifluoromethyl)phenoxy)-1-(5-(3,5-di-methylisoxazol-4-yl)-7,8-dihydrothiazolo[2′,3′:2,3]-imidazo[4,5-c]pyridin-6(5H)-yl)ethanone]
IC50: 0.085 µM

Cc1cc(Cl)ccc1OCC(=O)N1CCc2nc3sccn3c2C1c1c(C)noc1C (centres unmarked) [Example 6.5.4, 2-(4-chloro-2-methylphenoxy)-1-(5-(3,5-dimethylisoxazol-4-yl)-7,8-dihydrothiazolo[2′,3′:2,3]imidazo[4,5-c]-pyridin-6(5H)-yl)ethanone]
IC50: 0.027 µM

CCc1cc(Cl)ccc1OCC(=O)N1CCc2nc3sccn3c2C1c1c(C)noc1C (centres unmarked) [Example 6.5.5, 2-(4-chloro-2-ethylphenoxy)-1-(5-(3,5-dimethylisoxazol-4-yl)-7,8-dihydrothiazolo[2′,3′:2,3]imidazo[4,5-c]pyridin-6(5H)-yl)ethanone]
IC50: 0.135 µM

O=C(COc1ccc(N2CCOCC2)nc1Cl)N1CCc2nc3sccn3c2C1c1ccc(C2CC2)cc1F (centres unmarked) [Example 6.6.1, 2-((2-chloro-6-morpholinopyridin-3-yl)oxy)-1-(5-(4-cyclopropyl-2-fluorophenyl)-7,8-dihydrothiazolo-[2′,3′:2,3]imidazo[4,5-c]pyridin-6(5H)-yl)ethanone]
IC50: 0.004 µM
